Measured values from US6924279B2, “Crystalline 1-methylcarbapenem derivatives” (Sankyo Company, Limited, priority 1999, dated 2005).
Read-outs that look alike come from different tables or passages of the source.

What was measured:
S. aureus 535 (MRSA) = assay: Antibiotic activity test, agar-plate dilution method; format: cell-based, Staphylococcus aureus
Experimental: (§1) The MIC (μg/ml), the lowest concentration of antibiotic which inhibits growth of the test bacterial strain, was determined by the agar-plate dilution method. The crystalline compounds obtained in Example 1, 2, 4 and 5 of this invention were evaluated against various bacterial strains by determining the MIC of each compound with respect to each strain.

E. coli 609 = assay: as above; format: cell-based, Escherichia coli
Experimental: as §1

K. pneumoniae 846 = assay: as above; format: cell-based, Klebisella pneumoniae
Experimental: as §1

[1] = Stability test in desiccator at 40° C. and 75% relative humidity (HPLC remaining amount); format: physicochemical
Experimental: (§2) The crystalline compounds obtained in Example 1, 2, 4 and 5 were kept for about 2 months in a desiccator at 40° C. and 75% relative humidity and in a desiccator at 60° C. in which silica gel was placed, respectively. The non-crystalline powdered compound (lyophilized product) obtained according to the procedure described in U.S. Pat. No. 6,090,802 Example 72 and in Japanese Patent Application Publication No. Hei-11-071277, which is a reference sample, was kept under the same conditions described above. The remaining amount of the crystalline compounds and the non-crystalline powdered compound were determined after 7, 20, 21, 28, and 56 days by high pressure liquid chromatography on a L-Column ODS (4.6 mm Φ×150 mm, (trade mark) manufactured by Kagakuhinn kennsa kyoukai) eluting with 20 mM KH2PO4 (pH 7.0): CH3CN=96:4 at 1.0 ml/minute at 60° C. using an ultraviolet wave length of 300 nm. The remaining percentages of these compounds were calculated from the remaining amount of them and show in Tables 1-4.

[2] = Stability test in desiccator at 60° C. in which silica gel was placed (HPLC remaining amount); format: physicochemical; conditions: desiccator at 60° C. with silica gel
Experimental: as §2

Enterobacter cloacae 963 = assay: Antibiotic activity test, agar-plate dilution method; format: cell-based
Experimental: as §1

Serratia marcescens 1184 = assay: as above; format: cell-based
Experimental: as §1

Escherichia coli NIHJ = assay: as above; format: cell-based
Experimental: as §1

[3] = tested on: Pseudomonas aeruginosa 1001; assay: as above; format: cell-based
Experimental: as §1

[4] = tested on: Staphylococcus aureus 209P; assay: as above; format: cell-based
Experimental: as §1

[5] = tested on: Klebisella pneumoniae 806; assay: as above; format: cell-based
Experimental: as §1

Structure (SMILES)	Antibiotic activity (MIC) (S. aureus 535 (MRSA))	Antibiotic activity (MIC) (E. coli 609)	Antibiotic activity (MIC) (K. pneumoniae 846)	Remaining percentage of compound ([1]; After 20 days)	Remaining percentage of compound ([1]; After 56 days)	Remaining percentage of compound ([2]; After 21 days)	Remaining percentage of compound ([2]; After 56 days)	Antibiotic activity (MIC) (Enterobacter cloacae 963)	Antibiotic activity (MIC) (Serratia marcescens 1184)	Antibiotic activity (MIC) (Escherichia coli NIHJ)	Antibiotic activity (MIC) [3]	Antibiotic activity (MIC) [4]	Antibiotic activity (MIC) [5]	also measured
C[C@@H](O)[C@H]1C(=O)N2C(C(=O)O)=C(S[C@H]3C[C@@H](C(=O)N4CC[C@H](NC(=O)CNC(=N)N)C4)N(C)C3)[C@H](C)[C@H]12 [Example 4, (1R,5S,6S)-2-[(2S,4S)-2-[(3S)-3-(2-Guanidinoacetylamino)pyrrolidin-1-ylcarbonyl]-1-methylpyrrolidin-4-ylthio]-6-[(1R)-1-hydroxyethyl]-1-methyl-1-carbapen-2-em-3-carboxylic Acid]	1.5 µg/mL	0.02 µg/mL	≦0.01 μg/ml	99.4%	94.3%	100.4%	100.9%	0.05 µg/mL	≦0.01 μg/ml	≦0.01 μg/ml	0.2 µg/mL	≦0.01 μg/ml	≦0.01 μg/ml	–
CCO.C[C@@H](O)[C@H]1C(=O)N2C(C(=O)O)=C(S[C@H]3C[C@@H](C(=O)N4CC[C@H](NC(=O)CNC(=N)N)C4)N(C)C3)[C@H](C)[C@H]12.C[C@@H](O)[C@H]1C(=O)N2C(C(=O)O)=C(S[C@H]3C[C@@H](C(=O)N4CC[C@H](NC(=O)CNC(=N)N)C4)N(C)C3)[C@H](C)[C@H]12 [Example 2, (1R,5S,6S)-2-[(2S,4S)-2-[(3S)-3-(2-Guanidinoacetylamino)pyrrolidin-1-ylcarbonyl]-1-methylpyrrolidin-4-ylthio]-6-[(1R)-1-hydroxyethyl]-1-methyl-1-carbapen-2-em-3-carboxylic Acid.1/2 Ethanol]	1.5 µg/mL	≦0.01 μg/ml	≦0.01 μg/ml	95.8%	87.3%	100.1%	96.8%	0.05 µg/mL	≦0.01 μg/ml	≦0.01 μg/ml	0.2 µg/mL	≦0.01 μg/ml	≦0.01 μg/ml	–
C[C@@H](O)[C@H]1C(=O)N2C(C(=O)O)=C(S[C@H]3C[C@@H](C(=O)N4CC[C@H](NC(=O)CNC(=N)N)C4)N(C)C3)[C@H](C)[C@H]12 [Example 5, (1R,5S,6S)-2-[(2S,4S)-2-[(3S)-3-(2-Guanidinoacetylamino)pyrrolidin-1-ylcarbonyl]-1-methylpyrrolidin-4-ylthio]-6-[(1R)-1-hydroxyethyl]-1-methyl-1-carbapen-2-em-3-carboxylate.1/4 Ethanol.3/2 Hydrate]	–	–	–	–	–	–	–	–	–	–	–	–	–	Antibiotic activity (MIC) (E. coli 609; Hydrate): ≦0.01 μg/ml; Remaining percentage of compound ([1]; After 7 days): 98.9%; Remaining percentage of compound ([1]; After 28 days): 94.6%; Remaining percentage of compound ([1]; After 56 days, Hydrate): 83.2%; Remaining percentage of compound ([2]; After 7 days): 98.3%; Remaining percentage of compound ([2]; After 28 days): 97.0%; Remaining percentage of compound ([2]; After 56 days, Hydrate): 97.6%; Antibiotic activity (MIC) ([3]; Hydrate): 0.39 µg/mL
CCO.C[C@@H](O)[C@H]1C(=O)N2C(C(=O)O)=C(S[C@H]3C[C@@H](C(=O)N4CC[C@H](NC(=O)CNC(=N)N)C4)N(C)C3)[C@H](C)[C@H]12.O=C(O)O [Example 1, (1R,5S,6S)-2-[(2S,4S)-2-[(3S)-3-(2-Guanidinoacetylamino)pyrrolidin-1-ylcarbonyl]-1-methylpyrrolidin-4-ylthio]-6-[(1R)-1-hydroxyethyl]-1-methyl-1-carbapen-2-em-3-carboxylic acid.1/2 Carbonate.1/2 Ethanol]	1.5 µg/mL	0.02 µg/mL	≦0.01 μg/ml	98.5%	92.9%	98.5%	96.4%	0.05 µg/mL	≦0.01 μg/ml	≦0.01 μg/ml	0.2 µg/mL	≦0.01 μg/ml	≦0.01 μg/ml	–
